Results as given in patent US6680301B2, “Transfer of molecules into the cytosol of cells” (Photocure AS, priority 1994, dated 2004).
“Also recorded” adds a separate entry of the source. [FluoU] = uridine (ribose) carrying fluorescein on the base; {invT} = 3'-3' inverted thymidine; m = 2'-O-methyl; r = 2'-OH (RNA)

Assays:
NHIK 3025 cells [1] = test: Protein synthesis (3[H]leucine incorporation) after photosensitizer, toxin and light; assay type: cell-based, human
Protocol: FIG. 2 illustrates protein synthesis in NHIK 3025 cells after treatment with gelonin in the absence or presence of TPPS2a and 50 sec light exposure. Symbols: ◯, TPPS2a+light; ●, −TPPS2a−light; ∇, +TPPS2a−light; ▾, −TPPS2a+light. […] Protein synthesis was measured by measuring incorporation of ^3[H]leucine into proteins, 24 hours after light exposure.
(§1) NHIK 3025 cells were incubated with TPPS2a (Formula I) and gelonin, separately or together for 18 hours, followed by 1 hour in TPPS2a and gelonin-free medium before the cells were exposed to light. Protein synthesis was measured 24 hours after exposure to light. The photodynamic treatment, which kills 10-20% of the cells alone, reduced the protein synthesis by 30-40% (FIG. 2).
(§2) The intracellular location of the photosensitizers are lysosomal (TPPS4, TPPS2a, AlPcS2a) and extralysosomal (3-THPP). The following abbreviations are used: AlPcS2a for aluminum phtalocyanine with 2 sulfonate groups on adjacent phenyl rings; TPPS4 for meso-tetraphenylporphine with 4 sulfonate groups; TPPS2a for meso-tetraphenylporphine with 2 sulfonate groups on adjacent phenyl rings; 3-THPP for tetrahydroxylphenyl porphine. The cell lines used were carcinoma cells in situ from human cervix (NHIK 3025), Chinese hamster lung fibroblasts (V79), SV40-transformed African Green monkey kidney (CV1-simian fibroblasts-like cells) (Cos-7) human osteosarcoma cells (OHS) and small cell lung cancer cells (H146). All experiments were designed as in Example 1.

NHIK 3025 cells [2] = test: Cell killing / clonogenic survival after TPPS2a, gelonin and light; assay type: cell-based, human
Protocol: as §1
NHIK 3025 cells were incubated with TPPS2a and gelonin according to the design of Example 1.
Clonogenic survival of the cells was measured 24 hours after exposure to light. […] This is in accordance with prior art regarding killing unwanted cells with PDT. […] Increased concentration of added gelonin leads to more gelonin in the cytosol, as indicated by an increased sensitivity of the cells to photoactivation.

THX-cells [3] = test: PCI-induced transfection of TPPS2a-treated THX-cells (Example 23); assay type: cell-based, human; conditions: 2 μg/ml TPPS2a, blue light 30-150 s, pEGFP-N1-polylysine complex
Protocol: FIG. 24 illustrates PCI induced transfection of TPPS2a-treated THX-cells. Cells were treated with TPPS2a and transfected with a complex of plasmid DNA and polylysine as described in the text of Example 23. After light treatment the cells were analysed by flow cytometry. The white circle represents the total population of living cells, the black sector represents the fraction of cells that was positive for GFP-expression. Light exposure times are indicated on the Figure.
A pEGFP-N1-polylysine complex (5 μg DNA, charge ratio 1.2 was prepared as described above (see Example 17).
THX-cells were seeded out into 6 well plates (60 000 cells per well). After overnight incubation 2 μg/ml of the photosensitizer TPPS2a was added and the cells were incubated further for 18 h at 37° C. The cells were then washed 3 times with culture medium and transfected with the pEGFP-N1-polylysine complex for 6 h. The transfected cells were washed once with medium, and after addition of 2 ml of culture medium the cells were exposed to blue light (Appl. Photophysics, Nood. 3026, London) for 30, 60, 90, 120 or 150 s (control cells were not exposed to the light) and incubated further at 37° C. After 2 days the cells were seeded out into bigger 3004 dishes and incubated further so that the total incubation time before flow cytometry analysis was 108 h.

lysosomal cathepsin = test: Inhibition of lysosomal cathepsin by photodynamic action; assay type: cell-based, human; conditions: culture of NHIK 3025 cells
Excerpt: This was a surprising effect of the present invention and assists in maintaining the viability and functionality of the cells after transporting molecules into cytosol by disrupting endosomal/lysosomal membranes.

THX-cells [4] = test: Transfection efficiency after PCI with different doses of AlPcS2a (Example 20); assay type: cell-based, human; conditions: 5 or 40 μg/ml AlPcS2a, pEGFP-N1-polylysine complex, 2 or 4 min light
Protocol: FIG. 21 illustrates transfection efficiency after PCI with different doses of AlPcS2a. Cells were treated with different doses of the photosensitizer, transfected with a plasmid DNA-polylysine complex and analysed by flow cytometry as described in the text of Example 20. the white bars represent an AlPcS2a dose of 5 μg/ml, while the black bars represent 40 μg/ml.
THX-cells were seeded out into 6 well plates (60 000 cells per well). After overnight incubation AlPcS2a in concentrations of 5 μg/ml or 40 μg/ml was added, and the cells were incubated for 18 h at 37° C. The cells were then washed 3 times with culture medium and transfected with pEGFP-N1-polylysine complex (amount of plasmid 5 μg/ml, charge ratio 1.2, see Example 17) for 6 h. The transfected cells were washed once with medium, and after addition of 2 ml of culture medium the cells were exposed to red light (Phillips TL 20 W/09, filtered through a Cinemoid 35 filter) for 2 or 4 min (control cells were not exposed to the light) and incubated further at 37° C. for 40 hrs before flow cytometry analysis (see Example 17).

V79 cells = test: Protein synthesis after photosensitizer and light with or without gelonin; assay type: cell-based, Chinese hamster; conditions: 25 μg/ml AlPcS2a
Protocol: FIG. 5 illustrates protein synthesis in V79 cells after treatment with 25 μg/ml AlPcS2 and light in the absence and presence of 1 μg/ml gelonin. Symbols: ● Photosensitizer+toxin; ◯ photosensitizer.
as §2
This example relates to use of the photosensitizer AlPcS2a in V79 cells with or without gelonin as the toxin (FIG. 5). […] (Moan, J., Berg, K., Anholt, H. and Madslien, K. (1994). Sulfonated aluminum phtalocyanines as sensitizers for photochemotherapy. Effects of small light doses on localization, dye fluorescence and photosensitivity in V79 cells. Int. J. Cancer 58: 865-870.)

COS-7 cells = test: Protein synthesis after TPPS2a and light with or without gelonin; assay type: cell-based, African Green monkey; conditions: 3 μg/ml TPPS2a, 1 μg/ml gelonin
Protocol: FIG. 11 illustrates protein synthesis in COS-7 cells after treatment with 3 μg/ml TPPS2a and light in the absence and presence of 1 μg/ml gelonin. Symbols as in FIG. 5.
as §2

OHS cells = test: as above; assay type: cell-based, human; conditions: 3 μg/ml TPPS2a, 3 μg/ml gelonin, 50 μM chloroquine or 10 mM NH4Cl
Protocol: FIG. 13 illustrates protein synthesis in OHS cells after treatment with 3 μg/ml TPPS2a for 18 hours followed by 4 hours in the absence of TPPS2a and in the absence or presence of 3 μg/ml gelonin before exposure to light. The cells were incubated for the same 4 hours in 50 μM chloroquine or 10 mM NH4Cl to inhibit lysosomal protein degradation.
as §2
(FIG. 13). In this cell line there is a considerable protein degradation in the lysosomes, which in the present example is inhibited by incubating the cells for 4 hours in either 50 μM chloroquine or 10 mM NH4Cl.

H146 cells = test: as above; assay type: cell-based; conditions: 0.3 μg/ml TPPS2a, 1 μg/ml gelonin
Protocol: FIG. 6 illustrates protein synthesis in H146 cells after treatment with 0.3 μg/ml TPPS2a and light in the absence and presence of 1 μg/ml gelonin. Symbols as in FIG. 5.
as §2
(FIG. 6). TPPS2a is known to be lysosomally located in the cell. […]

THX human melanoma cells = test: PCI relocalization of fluorescein-labeled ribozyme (fluorescence microscopy); assay type: cell-based
Protocol: FIG. 14 illustrates subcellular localization of a fluorescein-ribozyme (5.5 μM) and AlPcS2a (20 μg/ml) in THX cells after 18 h incubation followed by 1 h wash. The Figure illustrates localization without light exposure (A) and after 10 min red light exposure followed by 40 min incubation in the dark (B). (Magnification 40×2.5).
The ribozyme employed in this example was a 37-mer synthetic 2′-O-methylated ribozyme designed against mRNA of the metastasis associated protein capl. The sequence (SEQ ID NO:1) was as follows:
5′-UAGUUCUCU GAUGAGGCCGNUAGGCCGAAA CUUGUU Y-3′, (SEQ ID NO: 1) where N is bases with 2′-O-methylated ribose, Y is uridine with a 3′-3′ inverted thymidine at the 3′ end, N is fluorescein attached to uracil.
To study the intracellular localization of the photosensitizer AlPcS2a and the ribozyme, THX human melanoma cells were plated on 16 well Lab-Tek (Nunc Inc.) chamber slides (3000 cells well^−1). After 18 h the culture medium was replaced with fresh RPMI medium supplemented with 10% fetal calf serum (FCS, Integro b.v., Holland) and containing […] AlPcS2a and […] ribozyme. […]
Control cells were observed without irradiation. […] Phase-contrast and fluorescence micrographs were recorded by means of a cooled charge-coupled device (CCD) camera (Astromed 3200, Cambridge, England).

## Oc1cccc(-c2c3nc(c(-c4cccc(O)c4)c4ccc([nH]4)c(-c4cccc(O)c4)c4nc(c(-c5cccc(O)c5)c5ccc2[nH]5)C=C4)C=C3)c1 [3-THPP, tetrahydroxylphenyl porphine, reference compound]
NHIK 3025 cells [1]; 0.25 μg/ml 3-THPP, light, 1 μg/ml gelonin, comparative example
  difference in protein synthesis effect with or without gelonin: no significant difference

## O=S(=O)(O)c1ccc(-c2c3nc(c(-c4ccc(S(=O)(=O)O)cc4)c4ccc([nH]4)c(-c4ccccc4)c4nc(c(-c5ccccc5)c5ccc2[nH]5)C=C4)C=C3)cc1 [TPPS2a, meso-tetraphenylporphine with 2 sulfonate groups on adjacent phenyl rings]
NHIK 3025 cells [2]; TPPS2a and light, no gelonin
  cells killed by the photodynamic treatment alone: 10-20%
NHIK 3025 cells [2]; light exposure increased, 24 hours after light
  clonogenic survival with TPPS2a and light: virtually all cells were killed
THX-cells [3]
  transfection-enhancing effect of PCI light treatment with TPPS2a as photosensitizer: substantial transfection-enhancing effect; also recorded: essentially the same as for AIPcS2a
NHIK 3025 cells [1]; TPPS2a and light, no gelonin, 24 hours after light
  reduction of protein synthesis by the photodynamic treatment alone: 30-40%
Lysosomal cathepsin
  inhibition of lysosomal cathepsin by photodynamic action: substantially inhibited

## aluminum phtalocyanine with 2 sulfonate groups on adjacent phenyl rings [AlPcS2a, reference compound]
THX-cells [4]
  percentage of transfected cells versus photosensitizer concentration: increased with increasing photosensitizer concentration
V79 cells; selected light dose
  protein synthesis with photosensitizer and light, without toxin: small reduction in protein synthesis

## gelonin
NHIK 3025 cells [2]; 0.2 or 2.0 μg/ml gelonin
  clonogenic survival when gelonin is added to TPPS2a and light: the survival rate drops
V79 cells; 1 μg/ml gelonin
  protein synthesis with photosensitizer, light and gelonin: profoundly reduced
COS-7 cells
  transport of toxin into cells by TPPS2a and light: demonstrates the transport of gelonin into COS-7 cells
OHS cells
  transport of toxin into cells by TPPS2a and light: demonstrates the transport of gelonin into OHS cells
NHIK 3025 cells [1]; 3.2 μg/ml TPPS2a, 50 sec light, measured 24 hours after light
  IC50 of gelonin for inhibition of protein synthesis when combining PDT and gelonin: 0.2 µg/mL
NHIK 3025 cells [1]; 75 μg/ml TPPS4, 50 sec light, different gelonin concentrations
  transport of gelonin into cells with TPPS4 and light: demonstrates transport of gelonin into NHIK 3025 cells
NHIK 3025 cells [1]; gelonin alone with light, or TPPS4 and gelonin without light
  transport of gelonin into cells in controls: no transport of gelonin into the cells was obtained
NHIK 3025 cells [1]; gelonin alone, presence or absence of light, no PDT
  effect of gelonin alone on protein synthesis: inhibits protein synthesis to some extent
H146 cells
  transport of toxin into cells by TPPS2a and light: transport of the toxin gelonin into H146 cells without essentially affecting the viability of the cells

## ribozyme: 37-mer synthetic 2′-O-methylated fluorescein-labeled ribozyme designed against mRNA of the metastasis associated protein capl (SEQ ID NO:1) (UAGUUCUCUGAUGAGGCCGUUAGGCCGAAACUUGUUY; sugars from the 5' end mmmmmmmmmrrmrrrrmmrrrrrrmmrrrrmmmmmmr, [FluoU] at 20, 3' {invT}, backbone and the base at N not given here)
THX human melanoma cells; 5.5 μM ribozyme, 20 μg/ml AlPcS2a, 18 h, no light
  subcellular localization, nonirradiated cells: mainly localized in intracellular granules
THX human melanoma cells; 10 min red light, then 40 min
  subcellular localization after light exposure: most of the ribozyme fluorescence was present in the cytosol

## saporin
NHIK 3025 cells [1]; 3.2 μg/ml TPPS2a, 1 μg/ml toxin
  transport of toxin into cells by TPPS2a and light: demonstrates transport of the toxin saporin into NHIK 3025 cells
